Results from patent US20210009624A1, “[18F] FMAU LABELING FOR PET IMAGING OF CANCER PATIENTS” (University of Southern California, priority 2018, published 2021).

What was measured:
[1] = tested on: primary breast tumor as well as metastatic disease; assay: PET imaging of [18F]FMAU in breast cancer patients (Phase I); type: in vivo, human; conditions: FIG. 3
Source text: (§1) In addition to animal models, we also studied the [^18F]FMAU obtained through our synthesis method using the labeling kit in patients (Phase I) with known breast and prostate cancer. […] In view of the promising clinical Phase I data of [^18F]FMAU, it is clear that FMAU is a promising candidate for PET imaging of tumor cell proliferation, and may ultimately complement the role of FLT or other cell proliferation markers currently under development.

[2] = Adverse reactions in Phase I patients with breast and prostate cancer; type: in vivo, human; conditions: all studied patients (Phase I, known breast and prostate cancer)
Source text: as §1

[3] = Circulating metabolites in human blood after injection of [18F]FMAU; type: in vivo; conditions: human blood at 1 hour post-injection
Source text: as §1

Cc1cn([C@@H]2O[C@H](CO)C(O)C2[18F])c(=O)[nH]c1=O (stereo partly drawn) [[^18F]FMAU, 2′-deoxy-2′-[^18F]fluoro-5-methyl-1-beta-D-arabinofuranosyl-uracil]
primary breast tumor as well as metastatic disease uptake of [18F]FMAU (PET imaging) [1]: excellent | adverse reactions [2]: No adverse reactions were observed | circulating metabolites in human blood [3]: No major circulating metabolites were identified
